Each structure is given as a SMILES string.

T1 sequence (P29274 whole entry): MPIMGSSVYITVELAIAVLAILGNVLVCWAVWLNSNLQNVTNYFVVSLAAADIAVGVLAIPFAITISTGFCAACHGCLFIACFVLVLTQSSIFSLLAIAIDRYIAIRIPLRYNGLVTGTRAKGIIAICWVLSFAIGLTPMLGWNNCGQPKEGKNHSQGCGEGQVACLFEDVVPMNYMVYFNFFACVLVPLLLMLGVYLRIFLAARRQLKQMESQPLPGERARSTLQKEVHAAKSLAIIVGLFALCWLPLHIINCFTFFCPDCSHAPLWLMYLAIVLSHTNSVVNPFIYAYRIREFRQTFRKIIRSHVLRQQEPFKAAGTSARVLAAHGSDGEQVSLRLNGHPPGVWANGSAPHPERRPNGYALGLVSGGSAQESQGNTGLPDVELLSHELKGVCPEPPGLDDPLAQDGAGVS

Tested on in one series: not given
Experiment: not given
Details: not given
The term melting point denotes the temperature of the solid-liquid transition. In the case of `COc1ccc(C2=CCNCC2)c2sc(NC(=O)c3ccc(F)cc3)nc12.Cl`, the melting point fell in the range of 268 to 275 °C.
For the compound `COc1ccc(C2CCNCC2)c2sc(NC(=O)N3CCOCC3)nc12.Cl`, the melting point fell in the range of 314 to 315 °C.
The same measure, in the same setting: to `COC(=O)Nc1nc2c(OC)ccc(C3=CCCCC3)c2s1` [Example 22, (7-Cyclohex-1-enyl-4-methoxy-benzothiazol-2-yl)-carbamic acid methyl ester] belongs 164 to 173 °C; to `COc1ccc(C2CCCCC2)c2sc(NC(=O)c3ccc(F)cc3)nc12` [Example 23, N-(7-Cyclohexyl-4-methoxy-benzothiazol-2-yl)-4-fluoro-benzamide], 192 to 195 °C; to `COc1ccc(C2CCOCC2)c2sc(NC(=O)c3ccnc(CN4CCCC4)c3)nc12` [Example 43, N-[4-Methoxy-7-(tetrahydro-pyran-4-yl)-benzothiazol-2-yl]-2-pyrrolidin-1-ylmethyl-isonicotinamide], 200 to 202 °C.

Another series concerns the target T1, human adenosine A2A receptor (Homo sapiens, UniProt P29274).
T1 construct: expressed in transfected cells; host or cells: CHO cells, semliki forest virus expression system; membrane preparation
As to the kind of experiment: [3H]-SCH-58261 binding assay, human adenosine A2A receptor expressed in CHO cell membranes (SPA). To be noted: [3H]-SCH-58261 1 nM, Ki by Cheng-Prussoff equation. On the procedure: Human Adenosine A2A Receptor
The human adenosine A2A receptor was recombinantly expressed in chinese hamster ovary (CHO) cells using the semliki forest virus expression system. Cells were harvested, washed twice by centrifugation, homogenised and again washed by centrifugation. The final washed membrane pellet was suspended in a Tris (50 mM) buffer containing 120 mM NaCl, 5 mM KCl, 2 mM CaCl2 and 10 mM MgCl2 (pH 7.4) (buffer A). The [^3H]-SCH-58261 (Dionisotti et al., 1997, Br J Pharmacol 121, 353; 1 nM) binding assay was carried out in 96-well plates in the presence of 2.5 μg of membrane protein, 0.5 mg of Ysi-poly-1-lysine SPA beads and 0.1 U adenosine deaminase in a final volume of 200 μl of buffer A. Non-specific binding was defined using xanthine amine congener (XAC; 2 μM). Compounds were tested at 10 concentrations from 10 μM-0.3 nM. All assays were conducted in duplicate and repeated at least two times. Assay plates were incubated for 1 hour at room temperature before centrifugation and then bound ligand determined using a Packard Topcount scintillation counter. IC50 values were calculated using a non-linear curve fitting program and Ki values calculated using the Cheng-Prussoff equation.
For `COc1ccc(C2CCCCC2)c2sc(NC(=O)c3ccnc(CN4CCCC4)c3)nc12` [Example 25, N-(7-Cyclohexyl-4-methoxy-benzothiazol-2-yl)-2-pyrrolidin-1-yl-methyl-isonicotinamide], the “hA2 (pKi)” value is listed as 8.80.

The series is the same for the next values; noted with them: [3H]-SCH-58261 1 nM, Ki by Cheng-Prussoff equation, read-out: hA2 (pKi) (converted).
As for `COC(=O)Nc1nc2c(OC)ccc(C3=CCOCC3)c2s1` [Example 1, [7-(3,6-Dihydro-2H-pyran-4-yl)-4-methoxy-benzothiazol-2-yl]-carbamic acid methyl ester], the Ki is 4.9 nM.
Same read-out and setting: to `COC(=O)Nc1nc2c(OC)ccc(C3CCOCC3)c2s1` [Example 2, [4-Methoxy-7-(tetrahydro-pyran-4-yl)-benzothiazol-2-yl]-carbamic acid methyl ester] belongs 11.5 nM.
Consider `COc1ccc(C2CCOCC2)c2sc(NC(=O)c3ccc(F)cc3)nc12` [Example 3, 4-Fluoro-N-[4-methoxy-7-(tetrahydro-pyran-4-yl)-benzothiazol-2-yl]-benzamide], for which the Ki is 1.41 nM.
The same measure, in the same setting: to `COc1ccc(C2CCOCC2)c2sc(NC(=O)c3ccnc(Br)c3)nc12` [Example 4, 2-Bromo-N-[4-methoxy-7-(tetrahydro-pyran-4-yl)-benzothiazol-2-yl]-isonicotinamide] belongs 1.74 nM; to `COc1ccc(C2CCOCC2)c2sc(NC(=O)c3ccnc(C)c3)nc12` [Example 5, N-[4-Methoxy-7-(tetrahydro-pyran-4-yl)-benzothiazol-2-yl]-2-methyl-isonicotinamide], 2.82 nM.
The same measure, in the same setting: to `COc1ccc(C2CCOCC2)c2sc(NC(=O)c3ccnc(N4CCOCC4)c3)nc12` [Example 6, N-[4-Methoxy-7-(tetrahydro-pyran-4-yl)-benzothiazol-2-yl]-2-morpholin-4-yl-isonicotinamide] belongs 0.759 nM.
With `COc1ccc(C2CCOCC2)c2sc(NC(=O)c3ccc(CCl)cc3)nc12` [Example 7, 4-Chloromethyl-N-[4-methoxy-7-(tetrahydro-pyran-4-yl)-benzothiazol-2-yl]-benzamide], the Ki is 1.1 nM.
On the same count and under the same terms, to `COCCN(C)Cc1ccc(C(=O)Nc2nc3c(OC)ccc(C4CCOCC4)c3s2)cc1` [Example 8, 4-{[(2-Methoxy-ethyl)-methyl-amino]-methyl}-N-[4-methoxy-7-(tetrahydro-pyran-4-yl)-benzothiazol-2-yl]-benzamide] belongs 2.4 nM; to `COc1ccc(C2=CCN(C(C)=O)CC2)c2sc(NC(=O)c3ccc(F)cc3)nc12` [Example 11, N-[7-(1-Acetyl-1,2,3,6-tetrahydro-pyridin-4-yl)-4-methoxy-benzothiazol-2-yl]-4-fluoro-benzamide], 5.01 nM; to `COc1ccc(C2CCN(C(C)=O)CC2)c2sc(NC(=O)c3ccc(F)cc3)nc12` [Example 12, N-[7-(1-Acetyl-piperidin-4-yl)-4-methoxy-benzothiazol-2-yl]-4-fluoro-benzamide], 3.16 nM.
Still for that read-out and setting: to `COc1ccc(C2CCN(C(C)=O)CC2)c2sc(NC(=O)c3ccnc(C)c3)nc12` [Example 17, N-[7-(1-Acetyl-piperidin-4-yl)-4-methoxy-benzothiazol-2-yl]-2-methyl-isonicotinamide] belongs 6.31 nM; to `COCCN(C)Cc1ccc(C(=O)Nc2nc3c(OC)ccc(C4CCN(C(C)=O)CC4)c3s2)cc1` [Example 18, N-[7-(1-Acetyl-piperidin-4-yl)-4-methoxy-benzothiazol-2-yl]-4-{[(2-methoxy-ethyl)-methylamino]-methyl}-benzamide], 7.94 nM; to `COc1ccc(C2CCN(C(C)=O)CC2)c2sc(NC(=O)c3ccc(C)cc3)nc12` [Example 19, N-[7-(1-Acetyl-piperidin-4-yl)-4-methoxy-benzothiazol-2-yl]-4-methyl-benzamide], 3.98 nM.
Take `COc1ccc(C2CCN(C(C)=O)CC2)c2sc(NC(=O)c3ccnc(N4CCOCC4)c3)nc12` [Example 20, N-[7-(1-Acetyl-piperidin-4-yl)-4-methoxy-benzothiazol-2-yl]-2-morpholin-4-yl-isonicotinamide]: the Ki was 2.51 nM.
The same measure, in the same setting: to `COc1cc(C(=O)Nc2nc3c(OC)ccc(C4CCN(C(C)=O)CC4)c3s2)ccn1` [Example 21, N-[7-(1-Acetyl-piperidin-4-yl)-4-methoxy-benzothiazol-2-yl]-2-methoxy-isonicotinamide] belongs 3.98 nM; to `COC(=O)Nc1nc2c(OC)ccc(C3=CCCCC3)c2s1` [Example 22, (7-Cyclohex-1-enyl-4-methoxy-benzothiazol-2-yl)-carbamic acid methyl ester], 10 nM; to `COc1ccc(C2CCCCC2)c2sc(NC(=O)c3ccc(F)cc3)nc12` [Example 23, N-(7-Cyclohexyl-4-methoxy-benzothiazol-2-yl)-4-fluoro-benzamide], 0.2 nM.
Same read-out and setting: to `COCCN(C)Cc1ccc(C(=O)Nc2nc3c(OC)ccc(C4CCCCC4)c3s2)cc1` [Example 24, N-(7-Cyclohexyl-4-methoxy-benzothiazol-2-yl)-4-{[(2-methoxy-ethyl)-methyl-amino]-methyl}-benzamide] belongs 1.58 nM; to `COc1ccc(C2CCOCC2)c2sc(NC(=O)c3ccc(C)nc3)nc12` [Example 28, N-[4-Methoxy-7-(tetrahydro-pyran-4-yl)-benzothiazol-2-yl]-6-methyl-nicotinamide], 1.07 nM.
Same read-out and setting: to `COc1cc(C(=O)Nc2nc3c(OC)ccc(C4CCOCC4)c3s2)ccn1` [Example 31, 2-Methoxy-N-[4-methoxy-7-(tetrahydro-pyran-4-yl)-benzothiazol-2-yl]-isonicotinamide] belongs 1.45 nM; to `CCOc1cc(C(=O)Nc2nc3c(OC)ccc(C4CCOCC4)c3s2)ccn1` [Example 32, 2-Ethoxy-N-[4-methoxy-7-(tetrahydro-pyran-4-yl)-benzothiazol-2-yl]-isonicotinamide], 2.75 nM; to `CCc1cc(C(=O)Nc2nc3c(OC)ccc(C4CCOCC4)c3s2)ccn1` [Example 33, 2-Ethyl-N-[4-methoxy-7-(tetrahydro-pyran-4-yl)-benzothiazol-2-yl]-isonicotinamide], 1.66 nM.
Turning to `CCCc1cc(C(=O)Nc2nc3c(OC)ccc(C4CCOCC4)c3s2)ccn1` [Example 34, N-[4-Methoxy-7-(tetrahydro-pyran-4-yl)-benzothiazol-2-yl]-2-propyl-isonicotinamide], the Ki was 1.82 nM.
Still for that read-out and setting: to `COc1ccc(C2CCOCC2)c2sc(NC(=O)c3ccnc(C(C)C)c3)nc12` [Example 36, 2-Isopropyl-N-[4-methoxy-7-(tetrahydro-pyran-4-yl)-benzothiazol-2-yl]-isonicotinamide] belongs 1.17 nM; to `COc1ccc(C2CCCCO2)c2sc(NC(=O)c3ccnc(Br)c3)nc12` (centres unmarked) [Example 39, 2-Bromo-N-[4-methoxy-7-(tetrahydro-pyran-2-yl)-benzothiazol-2-yl]-isonicotinamide], 3.8 nM; to `COc1ccc(C2CCCCO2)c2sc(NC(=O)c3ccc(F)cc3)nc12` (centres unmarked) [Example 40, 4-Fluoro-N-[4-methoxy-7-(tetrahydro-pyran-2-yl)-benzothiazol-2-yl]-benzamide], 3.39 nM.
For `COc1ccc(C2CCCCO2)c2sc(NC(=O)c3ccnc(C)c3)nc12` (centres unmarked) [Example 41, N-[4-Methoxy-7-(tetrahydro-pyran-2-yl)-benzothiazol-2-yl]-2-methyl-isonicotinamide], the Ki is 3.39 nM.
Same read-out and setting: to `COc1ccc(C2CCCCO2)c2sc(NC(=O)c3ccnc(N4CCOCC4)c3)nc12` (centres unmarked) [Example 42, N-[4-Methoxy-7-(tetrahydro-pyran-2-yl)-benzothiazol-2-yl]-2-morpholin-4-yl-isonicotinamide] belongs 2.04 nM; to `COc1ccc(C2CCOCC2)c2sc(NC(=O)c3ccnc(CN4CCCC4)c3)nc12` [Example 43, N-[4-Methoxy-7-(tetrahydro-pyran-4-yl)-benzothiazol-2-yl]-2-pyrrolidin-1-ylmethyl-isonicotinamide], 1.23 nM; to `COc1ccc(C2CCOCC2)c2sc(NC(=O)N3CCOCC3)nc12` [Example 44, Morpholine-4-carboxylic acid [4-methoxy-7-(tetrahydro-pyran-4-yl)-benzothiazol-2-yl]-amide], 1.51 nM.
Same read-out and setting: to `COCCNc1cc(C(=O)Nc2nc3c(OC)ccc(C4CCOCC4)c3s2)ccn1` [Example 46, 2-(2-Methoxy-ethylamino)-N-[4-methoxy-7-(tetrahydro-pyran-4-yl)-benzothiazol-2-yl]-isonicotinamide] belongs 0.871 nM.
Same read-out and setting: to `COCCN(C)c1cc(C(=O)Nc2nc3c(OC)ccc(C4CCOCC4)c3s2)ccn1` [Example 47, 2-[(2-Methoxy-ethyl)-methyl-amino]-N-[4-methoxy-7-(tetrahydro-pyran-4-yl)-benzothiazol-2-yl]-isonicotinamide] belongs 1.51 nM.
